The source of these data is patent US9765101B2, “Organo-arsenoxide compounds and use thereof” (NewSouth Innovations Pty Limited, priority 2006, dated 2017).

In data set [1] the test system is MCF-7 cells (mammary carcinoma). The experiment in a line: MCF-7 cell proliferation assay (MTT, 72 h). The following applies: MCF-7, human mammary carcinoma; read-out: IC50 for proliferation arrest. In kind it is cell-based. On the procedure:
(§1) BAE cells were from Cell Applications, San Diego, Calif. and BxPC-3, HT1080, LLC, PANC-1, MCF-7, HCT116 and K562 cells were from ATCC, Bethesda, Md. NB4 and MDCK2 cells were from Shane Supple (Kanematsu Laboratories, Royal Prince Alfred Hospital, Sydney, Australia) and P. Borst (The Netherlands Cancer Institute, Amsterdam, The Netherlands). BAE, HT1080, Panc-1, MCF-7, HCT116, MDCK2 and LLC cells were cultured in DMEM. NB4, K562 and BxPC-3 cells were cultured in RPMI medium. The cells were supplemented with 10% foetal calf serum (FBS), 2 mM L-glutamine, and 1 U·mL-1 penicillin/streptomycin. Cell culture plasticware was from Techno Plastic Products (Trasadingen, Switzerland). All other cell culture reagents were from Gibco (Gaithersburg, Md.).
(§2) Adherent cells were allowed to adhere overnight.

For another data set, the system named is BAE cells. As to the kind of experiment: BAE proliferation with glutathione depletion by BSO. It is filed as cell-based, bovine. The note with it: BAE cells co-treated with BSO, 72 h. On the procedure:
FIG. 12. Depletion of cellular glutathione increases (S)-Penicillamine-arsenoxide anti-proliferative activity. BAE cells were co-treated with (S)-Penicillamine-arsenoxide and the indicated concentrations of BSO for 72 h and the IC50 for proliferation arrest was calculated.
Treatment of BAE cells with glutathione reduced GSAO inhibition of BAE cell proliferation, while blocking de novo synthesis of glutathione with buthionine sulfoximine (BSO), an inhibitor of the γ-glutamyl cysteine synthase, enhanced the proliferation arrest by almost 100-fold (Dilda et al., 2005b).

Data set [2] concerns PANC-1 cells (pancreatic carcinoma). The experiment in a line: PANC-1 cell proliferation assay (MTT, 72 h). In kind it is cell-based. The note with it: PANC-1, human pancreatic carcinoma; read-out: IC50 for proliferation arrest. On the procedure:
as §1, §2

Data set [3] has as its system LLC cells (lung carcinoma). The experiment in a line: LLC cell proliferation assay (MTT, 72 h). In kind it is cell-based, human. The note with it: mouse Lewis lung carcinoma, read-out: IC50 for proliferation arrest. The method, then:
as §1, §2

In data set [4] the test system is isolated rat liver mitochondria. As to the kind of experiment: Mitochondrial swelling assay (mitochondrial permeability transition). It is filed as biochemical. The following applies: 100 μM. On the procedure: Mitochondria were isolated from the livers of ˜250 g male Wistar rats using differential centrifugation as previously described (Dilda et al., 2005a; Don et al., 2003). The final mitochondrial pellet was resuspended in 3 mM HEPES-KOH, pH 7.0 buffer containing 213 mM mannitol, 71 mM sucrose and 10 mM sodium succinate at a concentration of 30 mg of protein per mL. Mitochondrial permeability transition induction was assessed spectrophotometrically by suspending the liver mitochondria at 0.5 mg of protein per mL at 25° C. in 3 mM HEPES-KOH, pH 7.0 buffer containing 75 mM mannitol, 250 mM sucrose, 10 mM sodium succinate, and 2 μM rotenone. Swelling was measured by monitoring the associated decrease in light scattering at 520 nm using a SpectraMax Plus microplate reader (Molecular Devices, Palo Alto, Calif.).

In data set [5] the test system is HT1080 cells (fibrosarcoma). As to the kind of experiment: HT1080 cell proliferation assay (MTT, 72 h). It is filed as cell-based. The following applies: HT1080, human fibrosarcoma; read-out: IC50 for proliferation arrest. The method, then: as §1, §2
Data set [6] concerns MEF3.8 cells over-expressing BCRP. The following applies: MEF/BCRP; 96 h; relative to IC50 of non-transfected parental cells. The method, then: (§3) Transfectants of the Madin-Darby canine kidney II (MDCKII) polarised epithelial cell line, over-expressing multidrug resistance-associated proteins (MRP) 1, 2 or 3, have been described (Evers et al., 2000; Kool et al., 1999), as have the MEF/MDR1 clone H4 over-expressing human MDR1 or BCRP (Dilda et al., 2005b). Cells were grown and maintained as adherent monolayers in DMEM containing 10% calf serum (Cosmic™, Hyclone, Tauranga, New Zealand), 100 μg·mL^−1 penicillin and 60 μg·mL^−1 streptomycin. Cytotoxicity assays were performed as described previously (Allen et al., 1999).
(§4) Mammalian cells over-expressing MRP1, 2, 3 or 6, or MDR1 or BCRP were tested for resistance to (S)-Penicillamine-arsenoxide. MRP1, MRP2 or MRP3 was over-expressed in the canine kidney epithelial MDCKII cell line, while MRP6, MDR1 or BCRP was over-expressed in the murine embryo fibroblast MEF3.8 line. Cells were exposed to the indicated concentrations of (S)-Penicillamine-arsenoxide for 96 h and the number of viable cells measured and expressed relative to the number of untreated cells. Resistance factor is calculated relative to the (S)-Penicillamine arsenoxide IC50 for proliferation arrest of non-transfected parental cells.

Data set [7] relates to MDCKII cells over-expressing MRP1. The note with it: MD/MRP1; 96 h; relative to IC50 of non-transfected parental cells. On the procedure:
as §3, §4

Data set [8] deals with MDCKII cells over-expressing MRP3. The following applies: MD/MRP3; 96 h; relative to IC50 of non-transfected parental cells. The method, then:
as §3, §4

Data set [9] concerns MDCKII cells over-expressing MRP2. The following applies: MD/MRP2; 96 h; relative to IC50 of non-transfected parental cells. On the procedure: as §3, §4
Data set [10] concerns MEF3.8 cells over-expressing MRP6. The note with it: MEF/MRP6; 96 h; relative to IC50 of non-transfected parental cells. On the procedure:
as §3, §4

Data set [11] relates to MEF3.8 cells over-expressing MDR1. The following applies: MEF/MDR1; 96 h; relative to IC50 of non-transfected parental cells. On the procedure: as §3, §4
Another data set relates to MRP1/2. The experiment in a line: Effect of MRP1/2 inhibitors 4H10 and MK-571 on accumulation and anti-proliferative activity in BAE cells.
For data set [12], the system named is NB4 cells (acute promyelocytic leukaemia). As to the kind of experiment: NB4 cell proliferation assay (MTT, 72 h). In kind it is cell-based, human. The method, then:
as §1, §2

Data set [13] has as its system MDCK2 cells (kidney epithelial). The experiment in a line: MDCK2 cell proliferation assay (MTT, 72 h). It is filed as cell-based, dog. The method, then: as §1, §2

Entries after “also recorded” stand apart in the source; their conditions may differ.

Description for MRP1/2: The data points and error bars are the mean±SD of quadruplicate determinations and is representative of two experiments. […] The MRP inhibitors were incubated for 30 min with the cells prior to incubation with (S)-Penicillamine-arsenoxide for 72 h. The data points and error bars are the mean±SD of triplicate determinations. *** is p<0.001, ** is p<0.01
BAE, NB4, K562, MDCK2, HT1080, LLC, HCT116, Panc-1, MCF-7 and BxPC-3 cells were seeded at a density of 1.5×10^3, 3×10^3, 4×10^3, 5×10^2, 2×10^3, 5×10^2, 5×10^2, 6×10^3, 6×10^3 and 1×10^4 cells per well, respectively, into 96-well plates. Adherent cells were allowed to adhere overnight. They were then cultured for 72 h in medium containing 10% fetal calf serum and (S)-Penicillamine-arsenoxide. Viable cells were determined by incubating cells with the tetrazolium salt MTT (Sigma, St. Louis, Mo.), which is metabolized by viable cells to form insoluble purple formazan crystals. DMSO was added to lyse cells, the contents of the wells were homogenized and the absorbance measured at 550 nm. Cell number in the untreated control was normalized as 100%, and viable cell number for all treatments was expressed as percentage of control. The cytotoxic effects of (S)-Penicillamine-arsenoxide were assayed by flow cytometry with propidium iodide. BAE cells were seeded at a density of 5×10^4 cells per well into 12-well plates, allowed to adhere overnight, then treated for 48 h with GSAO. […] The combined cells were pelleted, resuspended in 0.5 mL serum-free medium containing 1 μg·mL^−1 propidium iodide (Molecular Probes, Eugene, Oreg.) and analysed by flow cytometry.
BAE cells were seeded at a density of 1.5×10^6 cells in Petri dishes and allowed to adhere overnight. Cells were incubated with 50 μM (S)-Penicillamine-arsenoxide at discrete times for up to 2 h at 37° C. and then washed three times with ice-cold PBS. The washed cells were lysed in 1 mL of 70% w/w nitric acid. […] Samples were diluted 10-fold and analysed for arsenic atoms using an Elan 6100 Inductively Coupled Plasma Spectrometer (Perkin Elmer Sciex Instruments, Shelton, Conn.).

Take `CC(C)(SCC(=O)Nc1ccc([As](O)O)cc1)[C@@H](N)C(=O)O` [(S)-Penicillamine-arsenoxide, 4-(N—(S-penicillaminylacetyl)amino)phenylarsinous acid]: the IC50 in data set [1] is 9 µM; in data set [2], 6.5 µM; in data set [3] it was 5 µM; in data set [5], 4 µM; in data set [12] (NB4, human acute promyelocytic leukaemia, read-out: IC50 for proliferation arrest) it was 0.7 µM; in data set [13] (MDCK2, dog kidney epithelial, read-out: IC50 for proliferation arrest) it was 2.4 µM. Also, the “enhancement of IC50 for proliferation arrest by BSO” value in the data set with BAE cells was “approximately 25 fold”. In data set [4], the “time for half-maximal swelling of isolated mitochondria, times faster compared to GSAO” value is “approximately 4 times”. Moreover, the “Resistance Factor” value in data set [6] was determined as 1.1; in data set [7], 3.7; in data set [8] it was 0.8; in data set [9], 4.6; in data set [10] it was 1.3; in data set [11], 1.2. Besides, in the data set with MRP1/2, the “substrate status for MRP1/2” value was “substrate for MRP1/2”. For the same molecule, the “anti-proliferative effect in presence of MRP1/2 inhibitors” value in the data set on MRP1/2 (0.3 μM compound, 4H10 2 μM or MK-571 15 μM, 72 h) is recorded as “more potent anti-proliferative effect”. For the same molecule, the “accumulation in presence of MRP1/2 inhibitors 4H10 and MK-571” value in the data set on MRP1/2 (50 μM compound, 4H10 5 μM or MK-571 25 μM) is listed as “More (S)-Penicillamine-arsenoxide accumulated in BAE cells”. For the same molecule, the “effects on APL cells compared to arsenic trioxide” value in [12] (NB4 cells, 72 h) is “equivalent to arsenic trioxide; also recorded: as good an inhibitor of APL cell proliferation as arsenic trioxide”. For the same molecule, in data set [13] (BAE vs MDCK2), the “sensitivity of BAE cells relative to kidney epithelial cells” value was determined as 5.6 fold.
